Measurements: patent US5807570A, “Transdermal administration of ropinirole and analogs thereof” (priority 1996, dated 1998)
Counter-ions that a name gives are not always drawn.

Legend:
Parkinson's disease [1] = settings: patients undergoing treatment with L-Dopa; cited from earlier work
[2] = in water at 20° C.; cited from earlier work
Parkinson's disease [3] = settings: statement in words; cited from earlier work
rabbits = assay: Skin irritation study in rabbits, modified Draize irritation protocol; type: in vivo, rabbit; settings: conclusion in words from Table 4
Procedure: The skin irritation study in rabbits using a modified Draize irritation protocol. The treatments included:
1) different activities of ropinirole in the selected vehicle that gave the highest flux of ropinirole slat; and
2) ropinirole in two selected vehicles. A proprietary vehicle that has been used in skin flux studies were tested as a control.
Mineral oil was used as the negative control in the study. The mean primary irritation score for each treatment was calculated.
3) ropinirole and base in three prototype systems (36048C, 36047G and 36040F; see Table 4 in Example 3, below).
Various ropinirole formulations were prepared and irritation studies conducted as described above.

dopamine D2 = settings: versus bromocriptine and pergolide; cited from earlier work

In the case of `N[C@@H](Cc1ccc(O)c(O)c1)C(=O)O` [L-Dopa], the therapeutic response fluctuations (Parkinson's disease [1]) is listed as “severe therapeutic response fluctuations”.

In the case of `CCCN(CCC)CCc1cccc2c1CC(=O)N2` [Ropinirole hydrochloride], the solubility [2] is given as 133 mg/mL.

In the case of `CCCN(CCC)CCc1cccc2c1CC(=O)N2` [ropinirole, 4-[2-(dipropylamino)ethyl]-1,3-dihydro-2H-indol-2-one], the “effectiveness in the treatment of Parkinson's disease” value (Parkinson's disease [3]) is listed as “effective in the treatment of Parkinson's disease”, the “irritation encountered upon transdermal administration” value (rabbits) is listed as “minimal” and the “specificity as dopamine D2 agonist” value (dopamine D2) is listed as “more specific dopamine D2 agonist than other dopamine agonists such as bromocriptine and pergolide”.
